Results published in patent publication US10550111B2, “Pyrimidine urea compound containing isoxazolines and use thereof” (SHENYANG SINOCHEM AGROCHEMICALS R&D CO., LTD, priority 2014, dated 2020).

System: broad-leaf weeds and grass weeds
Experiment: General screening of herbicidal activity in greenhouse;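 further: 0 means no visible effect and 100 means all weeds dead or not emerged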
Assay type: in vivo
Details: 1000 g a.i./hm^2
Description: Determination of herbicidal activity of compounds of the present invention against weeds was carried out by the following procedures:
Seeds of monocotyledonous and dicotyledonous weeds were sown in nutrition soil in paper pot (7 cm diameter), covered with soil in 1 cm and grown in the greenhouse under good growth conditions (temperature, atmospheric humidity, water supply). The compounds of the present invention as emulsifiable concentrate, were applied in pre-emergence and post-emergence treatment by track sprayer (Engineer Research Ltd., pressure 1.95 kg/cm^2, volume 500 L/hm^2, track speed 1.48 km/h). Pre-emergence treatment was conducted after seeding 24 hours and post-emergence treatment was done when the respective weeds reached predetermined leaf stage (grass weed 2- to 3-leaf stage, broad-leaf weed 2- to 4-leaf stage), the state of growth of the respective weeds were visually observed to determine the growth inhibition rate (%) in accordance with the following evaluation standard.
Growth inhibition rate (%): 0=no discernible action: 100=all weeds dead or not emerged.

Compound	pre-emergence and post-emergence herbicidal activity against broad-leaf weeds and grass weeds
CC(=O)OCC1(C)CC(c2cc(-n3c(=O)cc(C(F)(F)F)n(C)c3=O)ccc2Cl)=NO1 (centres unmarked) [Compound 321]	good
Cn1c(C(F)(F)F)cc(=O)n(-c2cc(C3=NOC(C)(COC(=O)c4cc(Oc5ccc(C(F)(F)F)cc5Cl)ccc4[N+](=O)[O-])C3)c(Cl)cc2F)c1=O (centres unmarked) [Compound 67]	good
CSCCC(=O)OCC1(C)CC(c2cc(-n3c(=O)cc(C(F)(F)F)n(C)c3=O)ccc2Cl)=NO1 (centres unmarked) [Compound 332]	good
Cn1c(C(F)(F)F)cc(=O)n(-c2cc(C3=NOC(C)(CBr)C3)c(Cl)cc2F)c1=O (centres unmarked) [Compound 99]	good
CC(C)NC(=O)C1(C)CC(c2cc(-n3c(=O)cc(C(F)(F)F)n(C)c3=O)c(F)cc2Cl)=NO1 (centres unmarked) [Compound 26]	good
CNC(=O)C1(C)CC(c2cc(-n3c(=O)cc(C(F)(F)F)n(C)c3=O)c(F)cc2Cl)=NO1 (centres unmarked) [Compound 23]	good
Cn1c(C(F)(F)F)cc(=O)n(-c2ccc(Cl)c(C3=NOC(C)(COC(=O)CCl)C3)c2)c1=O (centres unmarked) [Compound 328]	good
Cn1c(C(F)(F)F)cc(=O)n(-c2ccc(Cl)c(C3=NOC(C)(COC(=O)CCCl)C3)c2)c1=O (centres unmarked) [Compound 329]	good
COC(=O)C1CCN(C(=O)C2(C)CC(c3cc(-n4c(=O)cc(C(F)(F)F)n(C)c4=O)c(F)cc3Cl)=NO2)CC1 (centres unmarked) [Compound 35]	good
CC(C)C(=O)OCC1(C)CC(c2cc(-n3c(=O)cc(C(F)(F)F)n(C)c3=O)ccc2Cl)=NO1 (centres unmarked) [Compound 324]	good
Cn1c(C(F)(F)F)cc(=O)n(-c2ccc(Cl)c(C3=NOC(C)(COC(=O)C4CC4)C3)c2)c1=O (centres unmarked) [Compound 323]	good
